Where a SMILES comes first, the peptide text is derived from it. Bridges are numbered along the chain shown (N, C = ends). [ ]: non-standard residue; d: D form. 2Nal = N[C@@H](Cc1ccc2ccccc2c1)C(=O)O; Ala(cPr) = N[C@@H](CC1CC1)C(=O)O; tBuAla = CC(C)(C)C[C@H](N)C(=O)O; NMeE = CN[C@@H](CCC(=O)O)C(=O)O; NMeQ = CN[C@@H](CCC(N)=O)C(=O)O; Cha = N[C@@H](CC1CCCCC1)C(=O)O; Cba = N[C@@H](CC1CCC1)C(=O)O; Tle = CC(C)(C)[C@H](N)C(=O)O; S5 = C=CCCC[C@](C)(N)C(=O)O; Ac6c = NC1(C(=O)O)CCCCC1
Legend:
[1] = tested on: LEF-TCF-bla HCT116 cells; assay: Wnt reporter assay: Wnt/Beta-Catenin-LEF-TCF-bla HCT116 inhibitor screen, constitutively activated; assay type: cell-based; details: 5 hours incubation with compound
Excerpt: In various embodiments, a polypeptide described herein inhibits binding of BCL9 to β-catenin when assessed in a Wnt transcription assay. In some embodiments, the Wnt transcription assay is a cell-based assay. In some embodiments, the cell-based Wnt transcription assay is a GeneBLAzer® beta-lactamase (bla) reporter assay. Various cell lines, transformed cell lines or primary cells derived from a healthy subject or subject suffering from a disease can be used in this assay. A cell line known to be dependent on canonical Wnt/β-catenin signaling for its survival may also be used. In some embodiments, CellSensor™ LEF/TCF-bla HCT-116 cells are used in this reporter assay. These cells contain a beta-lactamase (BLA) reporter gene under the control of a 0-catenin/LEF/TCF response element stably integrated into HCT-116 cells. As the cells constitutively express beta-lactamase, adding a polypeptide that inhibits binding of BCL9 to β-catenin in this assay leads to reduced production of beta-lactamase. The efficiency of the polypeptide in suppressing Wnt transcription can therefore be quantitatively calculated in this assay. In some embodiments, a polypeptide described herein suppresses the Wnt transcription as measured in a GeneBLAzer® beta-lactamase (bla) reporter assay, which is indicative of the ability of the polypeptide to inhibit binding of BCL9 to β-catenin.
Wnt/Beta-Catenin-LEF-TCF-bla HCT116-Inhibitor Screen, Constitutively Activated. LEF-TCF-bla HCT116 cells are thawed and prepared as described above for the Activator Screen. 32 μL of cell suspension is added to each well of a 384-well Poly-D-Lysine assay plate. Cells in Assay Media are incubated for 16-24 hours in the plate at 37° C./5% CO2 in a humidified incubator. 4 μL of a 10× serial dilution of ICG-001 (control inhibitor starting concentration, 25,000 nM) or compounds are added to appropriate wells of the plate. 4 μL of Assay Media is added to all wells to bring the final assay volume to 40 μL. The plate is incubated for 5 hours at 37° C./5% CO2 in a humidified incubator. 8 μL of 1 μM Substrate Loading Solution is added to each well and the plate is incubated for 2 hours at room temperature. The plate is read on a fluorescence plate reader.

[2] = tested on: Colo320DM; assay: Colo320DM cell viability; assay type: cell-based, human
Excerpt: In some embodiments, a polypeptide described herein inhibits binding of BLC9 to β-catenin when assessed in a cell-viability assay. In some embodiments, the cell-viability assay is a CellTiterGlo luminescent assay, wherein the viability of cells is quantitatively measured. Various cell lines, transformed cell lines or primary cells derived from a healthy subject or subject suffering from a disease can be used in this assay.

| SMILES | IC50 [1] [nM] | IC50 [2] [nM] |
| --- | --- | --- |
| CC[C@H](C)[C@@H]1NC(=O)[C@@](C)(NC(=O)[C@H](CCCNC(=N)N)NC(=O)[C@H](CC(C)C)NC(=O)[C@@H](NC(=O)[C@H](CCC(N)=O)N(C)C(=O)[C@H](CC(C)C)NC(C)=O)[C@@H](C)O)CCCC=CCCC[C@@](C)(C(=O)N[C@@H](CC2CCC2)C(=O)N[C@@H](Cc2ccc3ccccc3c2)C(N)=O)NC(=O)[C@H](CCCNC(=N)N)NC(=O)[C@H](CCC(N)=O)NC1=O [SEQ ID NO: 108, L(N-methylQ)TLRXIQRX(CBA)(2-Nal)] (Ac-L[NMeQ]TLR[S5]IQR[S5][Cba][2Nal]-NH2; staple 6-10) | 3160 | 3100 |
| CC[C@H](C)[C@@H]1NC(=O)[C@@](C)(NC(=O)[C@H](CCCNC(=N)N)NC(=O)[C@H](CC(C)C)NC(=O)[C@@H](NC(=O)[C@H](CCC(N)=O)NC(=O)[C@H](CC(C)C)NC(=O)[C@H](CO)NC(=O)[C@H](CCCNC(=N)N)NC(=O)[C@H](CCC(N)=O)NC(=O)[C@H](CCCNC(=N)N)NC(=O)[C@H](Cc2c[nH]cn2)NC(C)=O)[C@@H](C)O)CCCC=CCCC[C@@](C)(C(=O)N[C@@H](CC2CC2)C(=O)N[C@@H](Cc2ccc3ccccc3c2)C(N)=O)NC(=O)[C@H](CCCNC(=N)N)NC(=O)[C@H](CCC(N)=O)NC1=O [SEQ ID NO: 162, HRQRSLQTLRXIQRX(Cpa)(2-Nal)] (Ac-HRQRSLQTLR[S5]IQR[S5][Ala(cPr)][2Nal]-NH2; staple 11-15) | 7050 | 4190 |
| CC[C@H](C)[C@@H]1NC(=O)[C@@](C)(NC(=O)[C@H](CCCNC(=N)N)NC(=O)[C@H](CC(C)C)NC(=O)[C@@H](NC(=O)[C@H](CCC(N)=O)NC(=O)[C@H](CC(C)C)NC(=O)[C@H](CO)NC(=O)[C@H](CCCNC(=N)N)NC(=O)[C@H](CCC(N)=O)NC(=O)[C@H](CCCNC(=N)N)NC(=O)[C@H](Cc2c[nH]cn2)NC(C)=O)[C@@H](C)O)CCCC=CCCC[C@@](C)(C(=O)NC2(C(=O)N[C@@H](Cc3ccc4ccccc4c3)C(N)=O)CCCCC2)NC(=O)[C@H](CCCNC(=N)N)NC(=O)[C@H](CCC(N)=O)NC1=O [SEQ ID NO: 177, HRQRSLQTLRXIQRX(A6C)(2-Nal)] (Ac-HRQRSLQTLR[S5]IQR[S5][Ac6c][2Nal]-NH2; staple 11-15) | 4450 | 2670 |
| CC[C@H](C)[C@@H]1NC(=O)[C@@](C)(NC(=O)[C@H](CCCNC(=N)N)NC(=O)[C@H](CC(C)C)NC(=O)[C@@H](NC(=O)[C@H](CCC(N)=O)NC(=O)[C@H](CC(C)C)NC(=O)[C@H](CO)NC(=O)[C@H](CCCNC(=N)N)NC(=O)[C@H](CCC(N)=O)NC(=O)[C@H](CCCNC(=N)N)NC(=O)[C@H](Cc2c[nH]cn2)NC(C)=O)[C@@H](C)O)CCCC=CCCC[C@@](C)(C(=O)N[C@H](C(=O)N[C@@H](Cc2ccc3ccccc3c2)C(N)=O)C(C)(C)C)NC(=O)[C@H](CCCNC(=N)N)NC(=O)[C@H](CCC(N)=O)NC1=O [SEQ ID NO: 192, HRQRSLQTLRXIQRX(Tle)(2-Nal)] (Ac-HRQRSLQTLR[S5]IQR[S5][Tle][2Nal]-NH2; staple 11-15) |  | 2590 |
| CC[C@H](C)[C@@H]1NC(=O)[C@@](C)(NC(=O)[C@H](CCCNC(=N)N)NC(=O)[C@H](CC(C)C)NC(=O)[C@@H](NC(=O)[C@H](CCC(N)=O)NC(=O)[C@H](CC(C)C)NC(=O)[C@H](CO)NC(=O)[C@H](CCCNC(=N)N)NC(=O)[C@H](CCC(N)=O)N(C)C(=O)[C@H](CCCNC(=N)N)NC(=O)[C@H](Cc2c[nH]cn2)NC(C)=O)[C@@H](C)O)CCCC=CCCC[C@@](C)(C(=O)N[C@@H](CC(C)(C)C)C(=O)N[C@@H](Cc2ccc3ccccc3c2)C(N)=O)NC(=O)[C@H](CCCNC(=N)N)NC(=O)[C@H](CCC(N)=O)NC1=O [SEQ ID NO: 193, HR(N-MeGln)RSLQTLRXIQRX(β-tBu-Ala)(2-Nal)] (Ac-HR[NMeQ]RSLQTLR[S5]IQR[S5][tBuAla][2Nal]-NH2; staple 11-15) |  | 2670 |
| CC[C@H](C)[C@@H]1NC(=O)[C@@](C)(NC(=O)[C@H](CCCNC(=N)N)NC(=O)[C@H](CC(C)C)NC(=O)[C@@H](NC(=O)[C@H](CCC(N)=O)NC(=O)[C@H](CC(C)C)NC(=O)[C@H](CO)NC(=O)[C@H](CCCNC(=N)N)NC(=O)[C@H](CCC(N)=O)N(C)C(=O)[C@H](CCCNC(=N)N)NC(=O)[C@H](Cc2c[nH]cn2)NC(C)=O)[C@@H](C)O)CCCC=CCCC[C@@](C)(C(=O)N[C@H](C(=O)N[C@@H](Cc2ccc3ccccc3c2)C(N)=O)C(C)(C)C)NC(=O)[C@H](CCCNC(=N)N)NC(=O)[C@H](CCC(N)=O)NC1=O [SEQ ID NO: 194, HR(N-MeGln)RSLQTLRXIQRX(Tle)(2-Nal)] (Ac-HR[NMeQ]RSLQTLR[S5]IQR[S5][Tle][2Nal]-NH2; staple 11-15) |  | 3750 |

Now those with a lower IC50 [2], led by results:

| IC50 [1] [nM] | IC50 [2] [nM] | SMILES |
| --- | --- | --- |
| 2260 | 1910 | CC[C@H](C)[C@@H]1NC(=O)[C@@](C)(NC(=O)[C@H](CCCNC(=N)N)NC(=O)[C@H](CC(C)C)NC(=O)[C@@H](NC(=O)[C@H](CCC(N)=O)N(C)C(=O)[C@H](CC(C)C)NC(=O)[C@H](CO)NC(=O)[C@H](CCCNC(=N)N)NC(=O)[C@H](CCC(=O)O)N(C)C(=O)[C@H](CCCNC(=N)N)NC(=O)[C@H](Cc2c[nH]cn2)NC(C)=O)[C@@H](C)O)CCCC=CCCC[C@@](C)(C(=O)N[C@@H](CC2CCC2)C(=O)N[C@@H](Cc2ccc3ccccc3c2)C(N)=O)NC(=O)[C@H](CCCNC(=N)N)NC(=O)[C@H](CCC(N)=O)NC1=O [SEQ ID NO: 154, HR(N-methylE)RSL(N-methylQ)TLRXIQRX(CBA)(2-Nal)] (Ac-HR[NMeE]RSL[NMeQ]TLR[S5]IQR[S5][Cba][2Nal]-NH2; staple 11-15) |
| 4430 | 2390 | CC[C@H](C)[C@@H]1NC(=O)[C@@](C)(NC(=O)[C@H](CCCNC(=N)N)NC(=O)[C@H](CC2CCCCC2)NC(=O)[C@@H](NC(=O)[C@H](CCC(N)=O)N(C)C(=O)[C@H](CC(C)C)NC(=O)[C@H](CO)NC(=O)[C@H](CCCNC(=N)N)NC(=O)[C@H](CCC(N)=O)N(C)C(=O)[C@H](CCCNC(=N)N)NC(=O)[C@H](Cc2c[nH]cn2)NC(C)=O)[C@@H](C)O)CCCC=CCCC[C@@](C)(C(=O)N[C@@H](CC2CCC2)C(=O)N[C@@H](Cc2ccc3ccccc3c2)C(N)=O)NC(=O)[C@H](CCCNC(=N)N)NC(=O)[C@H](CCC(N)=O)NC1=O [SEQ ID NO: 163, HR(N-methylQ)RSL(N-methylQ)T(Cha)RXIQRX(CBA)(2-Nal)] (Ac-HR[NMeQ]RSL[NMeQ]T[Cha]R[S5]IQR[S5][Cba][2Nal]-NH2; staple 11-15; N-terminus and C-terminus assumed) |
| 2210 | 1880 | CC[C@H](C)[C@@H]1NC(=O)[C@@](C)(NC(=O)[C@H](CCCNC(=N)N)NC(=O)[C@H](CC(C)C)NC(=O)[C@@H](NC(=O)[C@H](CCC(N)=O)NC(=O)[C@H](CC(C)C)NC(=O)[C@H](CO)NC(=O)[C@H](CCCNC(=N)N)NC(=O)[C@H](CCC(N)=O)NC(=O)[C@H](CCCNC(=N)N)NC(=O)[C@H](Cc2c[nH]cn2)NC(C)=O)[C@@H](C)O)CCCC=CCCC[C@@](C)(C(=O)N[C@@H](CC2CCCCC2)C(=O)N[C@@H](Cc2ccc3ccccc3c2)C(N)=O)NC(=O)[C@H](CCCNC(=N)N)NC(=O)[C@H](CCC(N)=O)NC1=O [SEQ ID NO: 180, HRQRSLQTLRXIQRX(Cha)(2-Nal)] (Ac-HRQRSLQTLR[S5]IQR[S5][Cha][2Nal]-NH2; staple 11-15) |
| 4460 | 1820 | CC[C@H](C)[C@@H]1NC(=O)[C@@](C)(NC(=O)[C@H](CCCNC(=N)N)NC(=O)[C@H](CC(C)C)NC(=O)[C@@H](NC(=O)[C@H](CCC(N)=O)N(C)C(=O)[C@H](CC(C)C)NC(=O)[C@H](CO)NC(=O)[C@H](CCCNC(=N)N)NC(=O)[C@H](CCC(N)=O)N(C)C(=O)[C@H](CCCNC(=N)N)NC(=O)[C@H](Cc2c[nH]cn2)NC(C)=O)[C@@H](C)O)CCCC=CCCC[C@@](C)(C(=O)N[C@@H](CC2CCCCC2)C(=O)N[C@@H](Cc2ccc3ccccc3c2)C(N)=O)NC(=O)[C@H](CCCNC(=N)N)NC(=O)[C@H](CCC(N)=O)NC1=O [SEQ ID NO: 181, HR(N-methylQ)RSL(N-methylQ)TLRXIQRX(Cha)(2-Nal)] (Ac-HR[NMeQ]RSL[NMeQ]TLR[S5]IQR[S5][Cha][2Nal]-NH2; staple 11-15) |

Reference: US11591365B2, “BCL9 peptides and variants thereof” (WntRx Pharmaceuticals Inc., priority 2017, dated 2023)
